In patent US12290510B2, “Polyvalent derivatives of emoxypine” (Riesner Verwaltungs GMBH, priority 2019, dated 2025):
Values joined by “and” are separate entries in the source; they are usually repeats but may differ in a detail not shown here. Equal entries are not always repeated.

Assays:
[1] = target: T1, α-synuclein fibrils (Homo sapiens, UniProt P37840); assay: Disaggregation of α-synuclein fibrils, thioflavin T (ThT) fluorescence emission at 482 nm; assay type: biochemical
Method: FIG. 1A depicts emission intensity of ThT at 482 nm (λexc=450 nm), in the presence of α-synuclein amyloids fibrils, with and without MHP-tren triimine (r70, light blue trace and yellow trace, respectively) from 1 minute to 3 days (72 h), where the bars from left to right in each set of histograms represents: control ThT; MHP tren-triimine; Aggregates+ThT+MHP tren-triimine; control ThT+MHP tren-triimine; and Aggregates+ThT, respectively.
FIG. 2 depicts emission intensity of ThT at 482 nm (λexc=450 nm), in the presence of α-synuclein amyloids fibrils, using Emoxypine r200, Emoxypine r100, MHP-tren triimine (also known as tri imino-emoxypine) r70 (light blue trace and yellow trace, respectively) from 1 minute to 3 days (72 h), where the bars from left to right in each set of histograms represents: α-synuclein+Emoxypine r200; α-synuclein+Emoxypine r100; and α-synuclein+MHP tren-triimine r70, respectively. The far leftmost bar of the graph, titled “Before addition of SOM” represents a sample without emoxypine or MHP tren-triimine, i.e. with 100% of α-synuclein aggregates left.
Disaggregation of α-synuclein fibrils using MHP-tren triimine (i.e., tri imino-emoxypine) was studied. The ratio of MHP-tren triimine:α-synuclein was 70 (r70).
Fluorescence measurements were performed by comparing the emission of thiovlavin T (ThT) in the presence of aggregates, without and with MHP-tren triimine at different times after the addition of MHP-tren triimine, from one minute to several days (λ emission of interest=482 nm, λ excitation=450 nm). Fluorescent measurements were also performed by comparing the emission of thiovlavin T (ThT) in the presence of aggregates and either emoxypine or MHP-tren triimine. The results (see, FIG. 1A-1B, FIG. 2 and Tables 1-2, below) show higher solubilization percentages using MHP-tren triimine as compared to emoxypine. […] The long-term efficiency of the triimine molecule is therefore better than that of its triamide analogue.

[2] = target: T1, α-synuclein fibrils; assay: Scanning electron microscope (SEM) images of α-synuclein fibrils without and with the triimine; settings: sample with the triimine molecule (FIG. 3B) vs “superaggregated” structures without (FIG. 3A)

Row | Percent of Solubilization ([1]; r100, 1 min) [%] | Percent of Solubilization ([1]; r100, 30 min) [%] | Percent of Solubilization ([1]; r100, 1 h) [%] | Percent of Solubilization ([1]; r100, 24 h) [%] | Percent of Solubilization ([1]; r100, 48 h) [%] | Percent of Solubilization ([1]; r100, 72 h) [%] | Percent of Solubilization ([1]; r200, 1 min) [%] | Percent of Solubilization ([1]; r200, 30 min) [%] | Percent of Solubilization ([1]; r200, 1 h) [%] | Percent of Solubilization ([1]; r200, 24 h) [%] | Percent of Solubilization ([1]; r200, 48 h) [%] | Percent of Solubilization ([1]; r200, 72 h) [%] | Percentage of solubilization ([1]; MHP-tren triimine:α-synuclein ratio 70 (r70), 1 min after addition) [%] | Percentage of solubilization ([1]; r70, 30 min after addition) | Percentage of solubilization ([1]; r70, 1 h after addition) [%] | Percentage of solubilization ([1]; r70, 24 h after addition) | Percentage of solubilization ([1]; r70, 48 h after addition) | Percentage of solubilization ([1]; r70, 72 h (3 days) after addition) | Structure (SMILES) | Appearance of α-synuclein sample in SEM images [2]
1 | 50 | 59 | 48 | 53 | 49 | 62 | 69 | 65 | 61 | 60 | 61 | 63 | – | – | – | – | – | – | CCc1nc(C)ccc1O [Emoxypine, emoxypine] | –
2 | – | – | – | – | – | – | – | – | – | – | – | – | 27 | 47.1% and 57% | 71 | 72.8% and 73% | 79.5% and 79% | 86% and 86.1% | Cc1ccc(O)c(/C=N/CCN(CC/N=C/c2nc(C)ccc2O)CC/N=C/c2nc(C)ccc2O)n1 [MHP-tren triimine, tri imino-emoxypine] | no apparent fiber or big aggregates-only small dots are visible
